A short description of data set [1]: Solid-state stability of the amorphous modification (conversion into crystal modifications). The format is physicochemical. Particulars: normal storage conditions, at crushing and compressing.
The nature of data set [2]: Release of the active substance in water (USP 24). It counts as physicochemical. Particulars: for Released torasemide: water, USP 24, 37° C., 50 rpm, 1000 ml. The procedure:
The amorphous torasemide modification as such is suitable for the preparation of pharmaceutical prepartions having short-term or prolonged actions. The amorphous torasemide modification prepared according to Example 1 of the present invention was subjected to the test of the release of the active substance in water at a temperature of 37° C. (USP 24) and the results are represented in Table 1. [table]

In the case of `Cc1cccc(Nc2ccncc2S(=O)(=O)NC(=O)NC(C)C)c1` [amorphous torasemide modification, N-(1-methylethylaminocarbonyl)-4-(3-methyl-phenylamino)-3-pyridinesulfonamide], in data set [1], the “Stability (no conversion into crystal modification I, II or III)” value was “stable”. In data set [2] (in water (USP 24), same medium), the “Release profile in comparison with the known crystal torasemide modifications” value is “slower release”. Also, the Released torasemide is on record as 0% in data set [2] (time 0 minutes); 6.8% in data set [2] (time 15 minutes); 10.2% in data set [2] (time 30 minutes); 13.0% in data set [2] (time 45 minutes); 15.9% in data set [2] (time 60 minutes); 20.4% in data set [2] (time 90 minutes). Moreover, the Released torasemide in data set [2] (time 120 minutes) is 24.9%.

(Values after patent US6767917B1, “Amorphous torasemide modification” (Pliva d.d., priority 2000, dated 2004).)
